Source: US6251948A, “Tri-and tetra-substituted guanidines and their use as excitatory amino acid antagonists” (State of Oregon, acting by and through the Oregon State …, priority 1995, dated 2001)
Structures can show the parent of a compound that is named as a salt.

How the values were obtained:
Korsakoff's disease = details: pretreatment; rat model; cited from earlier work
sigma brain receptor = details: Weber et al. 1986; U.S. Pat. No. 4,709,094; cited from earlier work
[1] = test system: lesions caused by NMDA injection; assay: In vivo neurotoxicity assay: NMDA-induced lesion (model of McDonald et al.); set-up: species or system rat; details: 0.1 to 100 umol/kg of body weight; intraperitoneal, 15 minutes following cerebral NMDA injection
Source text: In the in vivo neurotoxicity studies, the experimental model of McDonald, J. W., et al., (In: Sigma and Phencyclidine-like Compounds as Molecular Probes in Biology, Ed. Domino, E. F., and Kamenka, J.-M., pp. 697-707 (1988), NPP Books, Ann Arbor, Mich.) can be employed. In this model, an NMDA injection into one cerebral hemisphere of a rat pup causes brain injury which resembles the lesion produced by hypoxia-ischemia. The ability of test compounds to limit the NMDA-induced lesion is a measure of their neuroprotective properties; and, since the compounds are administered intraperitoneally, the model also provides information about a compound's ability to cross the blood-brain barrier.
The experimental model of McDonald, J. W., et al., supra, was employed with the single alteration in protocol of an intraperitoneal injection of the test compound 15 minutes following, rather than preceding, the cerebral NMDA injection.

Q: With C[C@]12N[C@H](Cc3ccccc31)c1ccccc12 [MK-801, (+)-5-methyl-10,11-dihydro-5H-dibenzo[a,d]cycloheptene-5,10-imine] as the compound, how does the “extent of cell loss, hemorrhages and amino acid changes” value (Korsakoff's disease) read?
A: markedly attenuates the extent of cell loss, hemorrhages and amino acid changes

Q: Which “selectivity for the sigma receptor” value (sigma brain receptor) does the source give for Cc1ccccc1NC(=N)Nc1ccccc1C [DTG, 1,3 di-o-tolyl-guanidine] here?
A: strong selectivity for the sigma receptor

Q: Which “protection against the lesions caused by NMDA injection” value [1] does the source give for CCc1cccc(N(C)C(=N)Nc2cccc3ccccc23)c1 [Compound VII, N-(1-Naphthyl)-N'-(m-ethylphenyl)-N'-methylquanidine Hydrochloride] here?
A: protect against the lesions caused by NMDA injection
